The source of these data is patent US9296736B2 (priority 2010, dated 2016).

This assay deals with interaction between GST-hMDM2 (1-188) and biotinylated-p53 (1-83) (Homo sapiens (Human), UniProt Q00987). As to the kind of experiment: biochemical.
Chain of interaction between GST-hMDM2 (1-188) and biotinylated-p53 (1-83) (Q00987 1-188): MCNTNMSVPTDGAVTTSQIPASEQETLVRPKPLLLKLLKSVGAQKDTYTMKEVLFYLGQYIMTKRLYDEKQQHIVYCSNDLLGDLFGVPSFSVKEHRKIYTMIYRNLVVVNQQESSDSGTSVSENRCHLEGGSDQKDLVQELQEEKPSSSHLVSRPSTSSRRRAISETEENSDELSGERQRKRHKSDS

One may read the IC50 as the point on the concentration scale where inhibition reaches its midpoint. The molecule `CC[C@@H](CNS(=O)(=O)c1cccnc1)N1C(=O)[C@@](C)(CC(=O)O)C[C@H](c2cccc(Cl)c2)[C@H]1c1ccc(Cl)cc1` [Example 196, 2-((3R,5R,6S)-5-(3-chlorophenyl)-6-(4-chlorophenyl)-3-methyl-2-oxo-1-((S)-1-(pyridine-3-sulfonamido)butan-2-yl)piperidin-3-yl)acetic acid] yielded a concentration for half-maximal inhibition (IC50) of under 1 nM.
